Data on 2 compounds can be found in US12653815B2, “Luminally-acting N-(piperidin-4-yl)benzamide derivatives” (Takeda Pharmaceutical Company Limited, priority 2020, dated 2026).

The target of this assay is T1, human 5-HT4(b) receptor (Homo sapiens, UniProt Q13639).
T1 construct: overexpressing the full-length human 5-HT4(b) receptor with an N-terminal FLAG tag; FLAG (N); host or cells: CHO-K1
In words: 5-HT4(b) agonist assay (cAMP accumulation). Type of assay: cell-based. The settings on record: CHO-K1 cells overexpressing full-length human 5-HT4(b) receptor; cAMP accumulation after 30 minutes at room temperature; 1 μM 5-HT as 100% activity. The gist of the method:
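FLAG-tagged full-length human 5-HT4(b) in CHO-K1 cells (frozen assay-ready), suspended in Krebs Ringer buffer; compound incubated 30 min at room temperature in the dark. cAMP read by HTRF (anti-cAMP antibody/d2-cAMP tracer, 1 h). Normalized to 1 μM 5-HT (100%) and DMSO (0%); EC50 reported.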

T1 sequence (Q13639 whole entry): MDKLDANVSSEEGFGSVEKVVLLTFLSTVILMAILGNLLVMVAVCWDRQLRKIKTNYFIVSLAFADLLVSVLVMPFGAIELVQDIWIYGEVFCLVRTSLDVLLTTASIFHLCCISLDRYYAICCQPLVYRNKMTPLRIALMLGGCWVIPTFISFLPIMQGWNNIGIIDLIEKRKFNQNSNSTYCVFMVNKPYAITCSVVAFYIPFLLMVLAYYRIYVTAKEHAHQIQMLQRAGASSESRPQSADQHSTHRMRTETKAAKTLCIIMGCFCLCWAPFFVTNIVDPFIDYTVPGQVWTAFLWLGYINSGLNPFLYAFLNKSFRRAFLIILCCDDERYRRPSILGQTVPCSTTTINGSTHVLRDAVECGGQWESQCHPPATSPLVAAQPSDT

Turning to `CO[C@H]1CN(CCCCCC(=O)NCCCCCC(=O)NC[C@H](O)[C@@H](O)[C@H](O)[C@H](O)CO)CC[C@H]1NC(=O)c1cc(Cl)c(N)c2c1OCC2` [Example 45, 4-amino-5-chloro-N-((3S,4R)-3-methoxy-1-(6-oxo-6-((6-oxo-6-(((2S,3R,4R,5R)-2,3,4,5,6-pentahydroxyhexyl)amino)hexyl)amino)hexyl)piperidin-4-yl)-2,3-dihydrobenzofuran-7-carboxamide], it took 12.1 nM to reach a half-maximal effect (EC50).

As for `CO[C@H]1CN(CCCCCC(=O)NCCCC(=O)NC[C@H](O)[C@@H](O)[C@H](O)[C@H](O)CO)CC[C@H]1NC(=O)c1cc(Cl)c(N)c2c1OCC2` [Example 46], a half-maximal effect (EC50) was put at 5.9 nM.
